Experimental findings from patent US20190255073A1, “ESTERS OF 3-POLYAMINE DERIVATIVES OF BILE ACIDS FOR THE TREATMENT OF INFECTIONS” (VIRBAC, priority 2016, published 2019) are described below.

Test [1] deals with P. aeruginosa (1051575). In words: Potentiation of erythromycin activity. Type of test: cell-based, Pseudomonas aeruginosa. As to conditions: concentration of compound required with erythromycin 2 μg/mL. The protocol: (§1) This method requires the use of a 96-well plate: 100 μL of a liquid culture medium are placed in each well and then seeded with the microbial suspension prepared previously. The required volume to be seeded is calculated for an OD of 0.01, which corresponds to about 5×10^6 bacteria in each well. In this plate, the first line corresponds to a negative control (200 μL of sterile culture medium in each well), the second line corresponds to a positive control (100 μL of sterile culture medium+100 μL of the bacterial suspension), and the third line contains 192 μL of culture medium; 8 μL of compound of formula (I) to be tested are placed in each well. Thereafter, a cascade dilution is performed from this line. μL of a doxycycline solution (1 mg dissolved in 20 mL) are then added to each well of the lines 3 to 8 to obtain a final antibiotic concentration of 2 μg/mL. 92 μL of bacterial suspension are then added to lines 3 to 8. […] After 24 hours of incubation at 37° C., 40 μL of nitro tetrazolium iodide are added to each well to reveal the presence of live bacteria by staining the medium pink.
The procedure is identical to that indicated in Example 5 above. 8 μL of an antibiotic solution under consideration (1 mg dissolved in 20 mL) are added to obtain a final antibiotic concentration of 2 μg/mL instead of 8 μL of a doxycycline solution.
(§2) The results are given in table V. They indicate the concentration of compound of formula (I) required to be able to restore the activity of the antibiotic under consideration.

In test [2] the test system is P. aeruginosa ATCC27853. As to the kind of experiment: MIC determination by microplate dilution, P. aeruginosa human strain. The class given is cell-based, Pseudomonas aeruginosa. As to conditions: Pseudomonas aeruginosa, ATCC27853, Gram-negative, Mueller-Hinton medium, 24 h, 37° C. The essentials: (§3)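 MH broth; inoculum OD 0.01/well; compound stock 5 mg/mL (DMSO:MeOH 1:1), serial 1/2 dilutions; 37 °C, 24 h, humid; OD 620 nm; n=2.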

Test [3] has as its system S. aureus (340). As to the kind of experiment: MIC determination by microplate dilution, S. aureus animal strain. The class given is cell-based, Staphylococcus aureus. As to conditions: Staphylococcus aureus, Gram-positive, Mueller-Hinton medium, 24 h, 37° C. The essentials: as §3
The subject of test [4] is P. aeruginosa (1051575). In words: MIC determination by microplate dilution, P. aeruginosa animal strain. The class given is cell-based, Pseudomonas aeruginosa. As to conditions: Pseudomonas aeruginosa, Gram-negative, Mueller-Hinton medium, 24 h, 37° C. In short, it runs like this: as §3
Test [5] concerns E. faecalis ATCC29212. In words: MIC determination by microplate dilution, E. faecalis human strain. The class given is cell-based, Enterococcus faecalis. As to conditions: Enterococcus faecalis, ATCC29212, Gram-positive, Mueller-Hinton medium, 24 h, 37° C. The essentials:
as §3

The test system of test [6] is E. coli (1956). In words: MIC determination by microplate dilution, E. coli animal strain. The class given is cell-based, Escherichia coli. As to conditions: Escherichia coli, Gram-negative, Mueller-Hinton medium, 24 h, 37° C. In short, it runs like this: as §3
In test [7] the test system is E. coli ATCC28922. In words: MIC determination by microplate dilution, E. coli human strain. Type of test: cell-based, Escherichia coli. As to conditions: Escherichia coli, ATCC28922, Gram-negative, Mueller-Hinton medium, 24 h, 37° C. In short, it runs like this: as §3
Test [8] relates to C. albicans. As to the kind of experiment: Antifungal activity, cascade microdilution, C. albicans. Type of test: cell-based, Candida albicans. As to conditions: Candida albicans, 24 h, read-out: IC50 (μg/mL) C. albicans. For orientation: In broth dilution the organism is exposed to a series of concentrations in liquid medium.
The test system of test [9] is P. aeruginosa (1051575). As to the kind of experiment: Potentiation of the doxycycline activity at 2 μg/mL. As to conditions: in combination with doxycycline 2 μg/mL; 24 h, 37°. Type of test: cell-based, Pseudomonas aeruginosa.
Test [10] relates to S. intermedius (1051997). In words: MIC determination by microplate dilution, S. intermedius animal strain. The class given is cell-based, Staphylococcus intermedius. As to conditions: Staphylococcus intermedius, Gram-positive, Mueller-Hinton medium, 24 h, 37° C. The essentials:
as §3

Test [11] concerns P. aeruginosa (1051575). As to the kind of experiment: Potentiation of chloramphenicol activity. The class given is cell-based, Pseudomonas aeruginosa. As for the experimental part:
as §1, with “Thereafter, a cascade dilution is performed from this line. μL of a doxycycline solution (1 mg dissolved in 20 mL) are then added to each well of the lines 3 to 8 to obtain a final antibiotic concentration of 2 μg/mL.” left out
(§4) The procedure is identical to that indicated in Example 5 above. […]
as §2

The subject of test [12] is P. aeruginosa (1051575). As to the kind of experiment: Potentiation of ampicillin activity. Type of test: cell-based, Pseudomonas aeruginosa. As to conditions: concentration of compound required with ampicillin 4 μg/mL. As for the experimental part:
as §1, with “Thereafter, a cascade dilution is performed from this line. μL of a doxycycline solution (1 mg dissolved in 20 mL) are then added to each well of the lines 3 to 8 to obtain a final antibiotic concentration of 2 μg/mL.” left out
as §4, §2

Converted amounts (≈) assume the structure as drawn.

One may read the MIC as the lowest concentration that inhibits growth of the organism. Turning to `CC(C)OC(=O)CC[C@@H](C)[C@H]1CCC2C3C(CC[C@@]21C)[C@@]1(C)CC[C@H](NCCCN(CCCN)CCCN)CC1C[C@H]3O` (stereo partly drawn) [(39), isopropyl 3β-(tris(3-aminopropyl)amine)chenodeoxycholate], in test [1], the “MIC P. aeruginosa (1051575), compound + erythromycin” value was found to be 30 µg/mL. In addition, the MIC in [2] was determined as 28 µg/mL (≈ 46.3 µM); in test [3] it was 7 µg/mL (≈ 11.6 µM); in test [4], 28 µg/mL (≈ 46.3 µM); in [5], 14 µg/mL (≈ 23.1 µM); in test [6] it was 28 µg/mL (≈ 46.3 µM); in test [7], 14 µg/mL (≈ 23.1 µM). This compound also returned an MIC in test [10] of 3.5 µg/mL (≈ 5.79 µM). Besides, the IC50 in test [8] came out at 4 µg/mL (≈ 6.61 µM). The “MIC - P. aeruginosa (1051575): content of compound of formula (I) to restore the doxycycline activity (at 2 μg/mL)” value in test [9] was found to be 2 µg/mL. Besides, the results for the “MIC P. aeruginosa (1051575), compound + chloramphenicol” value in test [11] (concentration of compound required with chloramphenicol 2 μg/mL) and in [11] (concentration of compound required with chloramphenicol 4 μg/mL) were 4 µg/mL and 2 µg/mL, respectively. Further, the “MIC P. aeruginosa (1051575), compound + ampicillin” value in [12] amounted to 30 µg/mL.
